Experimental findings from PubChem BioAssay (NCI) are described below.

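Five compound concentrations were applied to cells in 96-well plates for 48 hours; endpoints were derived by simple linear interpolation of the resulting dose-response curve. TGI: total growth inhibition.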 Some results are limits rather than exact numbers.

In the first experiment the test system is U251 CNS. Put plainly: NCI-60 cell line screen, 48 h.
The molecule `CC1=C[C@@H]2Cc3nc4cc(Cl)ccc4c(N)c3[C@H](C1)C2` returned a TGI of 37.7 µM.
Molecule `COc1cc(NS(C)(=O)=O)ccc1Nc1cc(C)[nH]c2ccc3nccc3c12` gave a TGI of over 100 µM.
Still for that read-out and setting: in the case of `CCN(CCCN(CC)C(=O)Nc1c(C)cccc1C)C(=O)Nc1c(C)cccc1C` it was over 100 µM.

The test system of another experiment is HT29 colon. Put plainly: NCI-60 cell line screen, 48 h.
As to `CC1=C[C@@H]2Cc3nc4cc(Cl)ccc4c(N)c3[C@H](C1)C2`, the TGI worked out at 13.2 µM.
`COc1cc(NS(C)(=O)=O)ccc1Nc1cc(C)[nH]c2ccc3nccc3c12` displayed a TGI of over 100 µM.
`CCN(CCCN(CC)C(=O)Nc1c(C)cccc1C)C(=O)Nc1c(C)cccc1C` gave a TGI of over 100 µM.

The subject of the next experiment is SF-539 CNS. Put plainly: NCI-60 cell line screen, 48 h.
Molecule `COc1cc(C2c3cc4c(cc3OC(NN)C2C)OCO4)cc(OC)c1OC` (centres undefined) had a TGI of 0.6 µM.
Still for that read-out and setting: in the case of `CC1=C[C@@H]2Cc3nc4cc(Cl)ccc4c(N)c3[C@H](C1)C2` it was 25.3 µM.

The next experiment deals with COLO 205 colon. Put plainly: NCI-60 cell line screen, 48 h.
As for `COc1cc(C2c3cc4c(cc3OC(NN)C2C)OCO4)cc(OC)c1OC` (centres undefined), the TGI amounted to 13.9 µM.
For the molecule `CC1=C[C@@H]2Cc3nc4cc(Cl)ccc4c(N)c3[C@H](C1)C2`, the TGI was determined as 2.92 µM.
`COc1cc(NS(C)(=O)=O)ccc1Nc1cc(C)[nH]c2ccc3nccc3c12` displayed a TGI of over 100 µM.
Consider `CCN(CCCN(CC)C(=O)Nc1c(C)cccc1C)C(=O)Nc1c(C)cccc1C`, for which the TGI was over 100 µM.

The next experiment has as its system DU-145 prostate. In words: NCI-60 cell line screen, 48 h.
Molecule `COc1cc(C2c3cc4c(cc3OC(NN)C2C)OCO4)cc(OC)c1OC` (centres undefined) registered a TGI of over 100 µM.
As to `CC1=C[C@@H]2Cc3nc4cc(Cl)ccc4c(N)c3[C@H](C1)C2`, the TGI came out at 27.3 µM.
`COc1cc(NS(C)(=O)=O)ccc1Nc1cc(C)[nH]c2ccc3nccc3c12` displayed a TGI of over 100 µM.
As to `CCN(CCCN(CC)C(=O)Nc1c(C)cccc1C)C(=O)Nc1c(C)cccc1C`, the TGI is over 100 µM.

For the next experiment, the system named is SK-MEL-5 melanoma. In words: NCI-60 cell line screen, 48 h.
Turning to `COc1cc(C2c3cc4c(cc3OC(NN)C2C)OCO4)cc(OC)c1OC` (centres undefined), the TGI is over 26.8 µM.
On the same count and under the same terms, the result for `CC1=C[C@@H]2Cc3nc4cc(Cl)ccc4c(N)c3[C@H](C1)C2` reads 11.2 µM.
Regarding `COc1cc(NS(C)(=O)=O)ccc1Nc1cc(C)[nH]c2ccc3nccc3c12`, the TGI was over 100 µM.
On the same count and under the same terms, the result for `CCN(CCCN(CC)C(=O)Nc1c(C)cccc1C)C(=O)Nc1c(C)cccc1C` reads over 100 µM.

The test system of a further experiment is PC-3 prostate. Put plainly: NCI-60 cell line screen, 48 h.
Consider `COc1cc(C2c3cc4c(cc3OC(NN)C2C)OCO4)cc(OC)c1OC` (centres undefined), for which the TGI was over 100 µM.
In the case of `CC1=C[C@@H]2Cc3nc4cc(Cl)ccc4c(N)c3[C@H](C1)C2`, the TGI is 26.9 µM.
Regarding `COc1cc(NS(C)(=O)=O)ccc1Nc1cc(C)[nH]c2ccc3nccc3c12`, the TGI is over 100 µM.
`CCN(CCCN(CC)C(=O)Nc1c(C)cccc1C)C(=O)Nc1c(C)cccc1C` registered a TGI of over 100 µM.

The test system of a further experiment is UACC-257 melanoma. In words: NCI-60 cell line screen, 48 h.
For `COc1cc(C2c3cc4c(cc3OC(NN)C2C)OCO4)cc(OC)c1OC` (centres undefined), the TGI is over 100 µM.
For the molecule `CC1=C[C@@H]2Cc3nc4cc(Cl)ccc4c(N)c3[C@H](C1)C2`, the TGI is 4.9 µM.
As for `COc1cc(NS(C)(=O)=O)ccc1Nc1cc(C)[nH]c2ccc3nccc3c12`, the TGI is over 100 µM.
For `CCN(CCCN(CC)C(=O)Nc1c(C)cccc1C)C(=O)Nc1c(C)cccc1C`, the TGI was over 100 µM.

Another experiment deals with BT-549 breast. In words: NCI-60 cell line screen, 48 h.
`COc1cc(C2c3cc4c(cc3OC(NN)C2C)OCO4)cc(OC)c1OC` (centres undefined) registered a TGI of over 100 µM.
With `CC1=C[C@@H]2Cc3nc4cc(Cl)ccc4c(N)c3[C@H](C1)C2`, the TGI was determined as 31.7 µM.
Regarding `COc1cc(NS(C)(=O)=O)ccc1Nc1cc(C)[nH]c2ccc3nccc3c12`, the TGI was over 100 µM.
Still for that read-out and setting: in the case of `CCN(CCCN(CC)C(=O)Nc1c(C)cccc1C)C(=O)Nc1c(C)cccc1C` it was over 100 µM.

The test system of a further experiment is HCT-15 colon. Put plainly: NCI-60 cell line screen, 48 h.
For `COc1cc(C2c3cc4c(cc3OC(NN)C2C)OCO4)cc(OC)c1OC` (centres undefined), the TGI is over 37.4 µM.
`CC1=C[C@@H]2Cc3nc4cc(Cl)ccc4c(N)c3[C@H](C1)C2` yielded a TGI of 24.3 µM.
For the molecule `COc1cc(NS(C)(=O)=O)ccc1Nc1cc(C)[nH]c2ccc3nccc3c12`, the TGI is over 100 µM.
For the molecule `CCN(CCCN(CC)C(=O)Nc1c(C)cccc1C)C(=O)Nc1c(C)cccc1C`, the TGI was over 100 µM.

Another experiment concerns ACHN renal. In words: NCI-60 cell line screen, 48 h.
On to `COc1cc(C2c3cc4c(cc3OC(NN)C2C)OCO4)cc(OC)c1OC` (centres undefined), for which the TGI was over 100 µM.
`CC1=C[C@@H]2Cc3nc4cc(Cl)ccc4c(N)c3[C@H](C1)C2` returned a TGI of 23.1 µM.
For `COc1cc(NS(C)(=O)=O)ccc1Nc1cc(C)[nH]c2ccc3nccc3c12`, the TGI was over 100 µM.
`CCN(CCCN(CC)C(=O)Nc1c(C)cccc1C)C(=O)Nc1c(C)cccc1C` came in with a TGI of over 100 µM.

For the next experiment, the system named is EKVX NSCLC. Put plainly: NCI-60 cell line screen, 48 h.
For `COc1cc(C2c3cc4c(cc3OC(NN)C2C)OCO4)cc(OC)c1OC` (centres undefined), the TGI is over 100 µM.
In turn, `CC1=C[C@@H]2Cc3nc4cc(Cl)ccc4c(N)c3[C@H](C1)C2` displayed a TGI of 13.3 µM.
Molecule `COc1cc(NS(C)(=O)=O)ccc1Nc1cc(C)[nH]c2ccc3nccc3c12` returned a TGI of over 100 µM.
Regarding `CCN(CCCN(CC)C(=O)Nc1c(C)cccc1C)C(=O)Nc1c(C)cccc1C`, the TGI was over 100 µM.

Another experiment concerns SNB-75 CNS. In words: NCI-60 cell line screen, 48 h.
For the molecule `COc1cc(C2c3cc4c(cc3OC(NN)C2C)OCO4)cc(OC)c1OC` (centres undefined), the TGI was over 75.2 µM.
Turning to `CC1=C[C@@H]2Cc3nc4cc(Cl)ccc4c(N)c3[C@H](C1)C2`, the TGI was 17.9 µM.
The same measure, in the same setting: in the case of `CCN(CCCN(CC)C(=O)Nc1c(C)cccc1C)C(=O)Nc1c(C)cccc1C` it was over 100 µM.

For a further experiment, the system named is SK-MEL-2 melanoma. Put plainly: NCI-60 cell line screen, 48 h.
Molecule `COc1cc(C2c3cc4c(cc3OC(NN)C2C)OCO4)cc(OC)c1OC` (centres undefined) returned a TGI of over 100 µM.
The same measure, in the same setting: the result for `CC1=C[C@@H]2Cc3nc4cc(Cl)ccc4c(N)c3[C@H](C1)C2` reads 29.7 µM; that for `COc1cc(NS(C)(=O)=O)ccc1Nc1cc(C)[nH]c2ccc3nccc3c12`, over 100 µM.
The same measure, in the same setting: in the case of `CCN(CCCN(CC)C(=O)Nc1c(C)cccc1C)C(=O)Nc1c(C)cccc1C` it was over 100 µM.

A further experiment relates to NCI-H23 lung. In words: NCI-60 cell line screen, 48 h.
Regarding `COc1cc(C2c3cc4c(cc3OC(NN)C2C)OCO4)cc(OC)c1OC` (centres undefined), the TGI is over 100 µM.
The molecule `CC1=C[C@@H]2Cc3nc4cc(Cl)ccc4c(N)c3[C@H](C1)C2` yielded a TGI of 22.3 µM.
The molecule `COc1cc(NS(C)(=O)=O)ccc1Nc1cc(C)[nH]c2ccc3nccc3c12` showed a TGI of over 100 µM.
